Patent publication US5834457A, “Method of modulating radical formation by mutant cuznsod enzymes” (The Regents of the University of California, priority 1996, dated 1998)
One block for each molecule: values may come before it.

Tests used:
[1] = Hydroxyl radical production from H2O2 by the enzymes or free copper, EPR of DMPO-OH adduct; assay type: biochemical; conditions: for hydroxyl radical production (double integration of DMPO-OH signal): 1.25 μM protein or 2.5 μM CuSO4, 45 mM DMPO, 30 mM H2O2, pH 7.4
Description: Hydroxyl radical formation by mutant and wild type CuZnSODs was determined by measuring the amount of adduct formed when the radical scavenging agent 5,5'-dimethyl-1-pyrroline N-oxide (DMPO) was added to the hydroxyl radical forming reaction. The amount of the DMPO-OH radical adduct formed was determined by measurement of the unique EPR spectra signals of the adduct.
30 mM hydrogen peroxide was injected to start the reaction. […] EPR spectra were recorded on a Bruker ER 200 D at room temperature, operated at 9.5 GHz with a modulation frequency of 100 KHz.
The samples were prepared and handled, and all measurements executed, in a strictly oxygen-free atmosphere, to prevent radical scavenging by molecular oxygen. Buffers were treated with Chelex 100 (Biorad) to eliminate the possibility of contamination by trace metals. […] An aqueous flat cell (Wilmad) was used to hold the samples.

[2] = system: CSM 14.1 cells overexpressing wild type CuZnSOD; test: Neural cell culture model of FALS: apoptosis/viability after serum withdrawal; assay type: cell-based, rat
Description: (§1) The conditionally-immortalized rat nigral neural cell line CSM 14.1 (M. Durand, et al., Soc. Neurosci. Abs. 16:40 (1990); and L. T. Zhong, et al., Proc. Natl. Acad. Sci. U.S.A. 90:4533 (1993)) was transfected with vectors carrying wild type CuZnSOD or the mutant CuZnSODs A4V, G37R, G41D, or G85R.
(§2) Next the […] efficacy of DDC was tested. Temperature-sensitive nigral neural cells (SCM 14.1) were transfected with wild type and A4V, G37R, G85R, and G41D mutant CuZnSOD constructs by methods described previously (Rabizadeh (1995), supra). Following selection in puromycin (7 μg/ml), cells were plated onto 96-well plates.
(§3) This was calculated as follows:
(§4) viability=[Vm(x)-Vm(0)]/[Vc(0)-Vm(0)]
(§5) Standard errors were computed by the delta method for computing the asymptotic standard error for the estimate of a nonlinear function (D. Colquhoun, Lectures on Biostatistics (Clarendon Press, 1971) pp. 39-42).

[3] = system: CSM 14.1 cells expressing mutant CuZnSODs A4V, G37R, G41D, G85R; test: as above; assay type: cell-based, rat; conditions: DDC 25-100 μM, all four mutants
Description: as §1, §2, §3, §4, §5

CSM 14.1 cells = test: Toxicity of DDC in transfected neural cells, all groups; assay type: cell-based, rat; conditions: DDC 1 mM or greater
Description: as §1, §2

Molecule: O=S(=O)([O-])[O-].[Cu+2] [CuSO4]
hydroxyl radical production (double integration of DMPO-OH signal) [1]: 1.9 µM

Molecule: CCN(CC)C(=S)S [DDC, Diethyldithiocarbamate]
effect on viability ([2]; DDC 100 μM, 60 hours, serum-free media): no significant effect
effect on cell viability ([2]; DDC 500 μM): decreased the viability
effect on apoptosis ([2]; DDC 25-100 μM, serum withdrawal): no effect
inhibition of apoptosis induced by mutant CuZnSODs [3]: 30-70%
toxicity in all groups (CSM 14.1 cells): toxic

Molecule: CuZnSOD mutant G93A: FALS-associated mutant human CuZnSOD G93A, recombinant, expressed in yeast
hydroxyl radical production (double integration of DMPO-OH signal) [1]: 6.5 µM

Next, values leading:

hydroxyl radical production (double integration of DMPO-OH signal) [1]: 3.2 µM
Molecule: wild type CuZnSOD: recombinant human wild type copper-zinc superoxide dismutase expressed in Saccharomyces cerevisiae

hydroxyl radical production (double integration of DMPO-OH signal) [1]: 15.6 µM
DMPO-OH signal relative to the wild type CuZnSOD signal ([1]; fully metallated enzyme, mean ± spread): 3.0±1.1 times
range of DMPO-OH signal relative to the wild type CuZnSOD signal ([1]; fully metallated enzyme, range over experiments): 2.1-5.7 times
Molecule: CuZnSOD mutant A4V: FALS-associated mutant human CuZnSOD A4V, recombinant, expressed in yeast
